These results are taken from patent US12168671B2, “Phosphohistidine mimetics and antibodies to same” (The Trustees of Princeton University, priority 2013, dated 2024).

A short description of the data set: second pKa from 31P shift. It is filed as physicochemical. From the text:
This means that both the pPye and pHis have the same charge state at physiological pH. Since the pKa2 of pHis is […], both of the phosphate group oxygen atoms in pHis will be depronated. For pPye, the doubly deprotonated state will be favored at physiological pH (pH 7.4), well mimicking pHis.

A word on the pKa: it is the negative logarithm of the acid dissociation constant. Take `NCCn1cc(P(=O)(O)O)cn1` [pPye]: the pKa was roughly 6.7.
